# Experimental data taken from patent US5891882A, “Benzopyranopyrrole and benzopyranopyridine α-1 adenergic compounds” (priority 1997, dated 1999).
# Counter-ions that a name gives are not always drawn.
# Molecular target: T1, α-1 Adrenoceptors (Rat Aorta) (Rattus norvegicus, UniProt P23944)
# T1 construct: Rat Aorta; from tissue; host or cells: rat aorta
# T1 sequence (P23944 1-561): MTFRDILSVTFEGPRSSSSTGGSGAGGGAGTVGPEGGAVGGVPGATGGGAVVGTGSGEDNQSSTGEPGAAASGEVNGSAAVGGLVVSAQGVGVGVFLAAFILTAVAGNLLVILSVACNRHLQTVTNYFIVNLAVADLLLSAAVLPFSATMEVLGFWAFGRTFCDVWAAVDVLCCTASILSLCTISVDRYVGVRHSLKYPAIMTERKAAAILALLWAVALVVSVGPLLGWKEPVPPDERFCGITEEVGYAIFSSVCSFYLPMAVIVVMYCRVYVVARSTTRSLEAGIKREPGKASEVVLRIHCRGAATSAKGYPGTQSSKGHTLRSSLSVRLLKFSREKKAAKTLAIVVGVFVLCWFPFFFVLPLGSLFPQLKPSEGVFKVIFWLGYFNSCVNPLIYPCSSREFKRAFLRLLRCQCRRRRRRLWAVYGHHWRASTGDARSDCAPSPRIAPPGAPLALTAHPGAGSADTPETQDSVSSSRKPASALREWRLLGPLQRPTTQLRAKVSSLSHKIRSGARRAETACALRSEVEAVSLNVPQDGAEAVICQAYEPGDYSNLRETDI
# Assay: Functional antagonism at α-1 adrenoceptors, rat aorta
# Assay type: cell-based
# Settings: read-out: In Vitro Characterization (pA2) Rat Aorta (converted)
# Description: (§1) Functional assays indicative of pharmacologically defined α-1 adrenoreceptors were used to further characterize compounds. Inhibition of phenylephrine (PE)-induced contraction of canine prostate smooth muscle can be correlated with α-1A adrenoreceptor activation. […] For each of these models, agonist dose response curves were repeated against increasing concentrations of test agent to derive a Schild plot [log ([…]) against log (molarity of test agent)] to determine the pA2.
row,SMILES,Kb [nM]
1,"COc1cnc2sc3c(=O)n(CCCCN4C[C@@H]5COc6cccc(OC)c6[C@@H]5C4)c(=O)[nH]c3c2n1 [Example 31, hydrochloride]",0.794
2,"COc1cccc2c1[C@@H]1CN(CCCCn3c(=O)[nH]c4c(sc5cnccc54)c3=O)C[C@@H]1CO2 [Example 29, 3-[4-((3aR,9bR)-cis-9-Methoxy-1,2,3,3a,4,9b-hexahydro-[1]-benzopyrano[3,4-c]pyrrol-2-yl)butyl]-pyrido[4',3':4,5]thieno[3,2-d]pyrimidine-2,4(1H,3H)-dione hydrochloride]",0.501
3,"COc1cccc2c1[C@@H]1CN(CCCCn3c(=O)[nH]c4c(sc5cc(Cl)cnc54)c3=O)C[C@@H]1CO2 [Example 38, 3-[4((3aR,9bR)-cis-9-Methoxy-1,2,3,3a,4,9b-hexahydro-[1]-benzopyrano[3,4-c]pyrrol-2-yl)butyl]-7-chloro-pyrido[2',3':4,5]thieno[3,2-d]pyrimidine-2,4(1H,3H)-dione hydrochloride]",1.15
4,"COc1cccc2c1[C@@H]1CN(CCCCn3c(=O)[nH]c4c(sc5ccc(Cl)nc54)c3=O)C[C@H]1CO2 [Example 25, 3-[4-((3aS,9bR)-trans-9-Methoxy-1,2,3,3a,4,9b-hexahydro-[1]-benzopyrano[3,4-c]pyrrol-2-yl)butyl]-8-chloro-pyrido[2',3':4,5]thieno[3,2-d]pyrimidine-2,4(1H,3H)-dione dihydrochloride]",0.0138
5,"COc1cccc2c1[C@@H]1CN(CCCCn3c(=O)[nH]c4c(sc5nc(C)ccc54)c3=O)C[C@@H]1CO2 [Example 35, hydrochloride]",0.741
6,"COc1cccc2c1[C@@H]1CN(CCCCn3c(=O)[nH]c4c(sc5c(OC)ccnc54)c3=O)C[C@@H]1CO2 [Example 18, 3-[4-((3aR,9bR)-cis-9-Methoxy-1,2,3,3a,4,9b-hexahydro-[1]-benzopyrano[3.4-c]pyrrol-2-yl)butyl]-6-methoxy-pyrido[2',3':4,51thieno[3,2-d]pyrimidine-2,4(1H,3H)-dione dihydrochloride]",0.457
7,"COc1cccc2c1[C@@H]1CN(CCCCn3c(=O)[nH]c4c(sc5c(OC)ccnc54)c3=O)C[C@H]1CO2 [Example 17, 3-[4-((3aS,9bR)-trans-9-Methoxy-1,2,3,3a,4,9b-hexahydro-[1]-benzopyrano[3,4-c]pyrrol-2-yl)butyl]-6-methoxy-pyrido[2',3':4,51thieno[3,2-d]pyrimidine-2,4(1H,3H)-dione dihydrochloride]",0.631

# More lines, now with the values ahead:
row,Kb [nM],SMILES
1,0.182,"COc1cccc2c1[C@@H]1CN(CCCCn3c(=O)[nH]c4c(sc5ccc(OC(C)C)nc54)c3=O)C[C@H]1CO2 [Example 51, 3-[4-((3aS,9bR)-trans-9-Methoxy-1,2,3,3a,4,9b-hexahydro-[1]-benzopyrano[3,4-c]pyrrol-2-yl)butyl]-8-isopropoxy-pyrido[2',3':4,5]thieno[3,2-d]pyrimidine-2,4(1H,3H)-dione hydrochloride]"
2,0.229,"COc1cccc2c1[C@@H]1CN(CCCCn3c(=O)[nH]c4c(sc5ccc(Cl)nc54)c3=O)C[C@@H]1CO2 [Example 37, 3-[4((3aR,9bR)-cis-9-Methoxy-1,2,3,3a,4,9b-hexahydro-[1]-benzopyrano[3,4-c]pyrrol-2-yl)butyl]-8-chloro-pyrido[2',3':4,5]thieno[3,2-d]pyrimidine-2,4(1H,3H)-dione hydrochloride]"
3,4.47,"COc1cccc2c1[C@@H]1CN(CCCCn3c(=O)[nH]c4c(sc5nc(-c6ccccc6)cnc54)c3=O)C[C@@H]1CO2 [Example 40, 3-[4-((3aR,9bR)-cis-9-Methoxy-1,2,3,3a,4,9b-hexahydro-[1]-benzopyrano[3,4-c]pyrrol-2-yl)butyl]-7-phenyl-pyrazino[2',3':4,5]thieno[3,2-d]pyrimidine-2,4(1H,3H)-dione hydrochloride]"
4,0.372,"COc1cccc2c1[C@@H]1CN(CCCCn3c(=O)[nH]c4c(sc5nccc(OC)c54)c3=O)C[C@@H]1CO2 [Example 36, 3-[4-((3aR,9bR)-cis-9-Methoxy-1,2,3,3a,4,9b-hexahydro-[1]-benzopyrano[3,4-c]pyrrol-2-yl)butyl]-9-methoxy-pyrido[2',3':4,5]thieno[3,2-d]pyrimidine-2,4(1H,3H)-dione hydrochloride]"

# Molecular target: T2, α-1A adrenoreceptor (canine prostate smooth muscle) (Canis lupus, UniProt A0A8I3NK63)
# T2 construct: antagonism of phenylephrine-induced contraction (pA2, Schild)
# T2 sequence (A0A8I3NK63 1-466): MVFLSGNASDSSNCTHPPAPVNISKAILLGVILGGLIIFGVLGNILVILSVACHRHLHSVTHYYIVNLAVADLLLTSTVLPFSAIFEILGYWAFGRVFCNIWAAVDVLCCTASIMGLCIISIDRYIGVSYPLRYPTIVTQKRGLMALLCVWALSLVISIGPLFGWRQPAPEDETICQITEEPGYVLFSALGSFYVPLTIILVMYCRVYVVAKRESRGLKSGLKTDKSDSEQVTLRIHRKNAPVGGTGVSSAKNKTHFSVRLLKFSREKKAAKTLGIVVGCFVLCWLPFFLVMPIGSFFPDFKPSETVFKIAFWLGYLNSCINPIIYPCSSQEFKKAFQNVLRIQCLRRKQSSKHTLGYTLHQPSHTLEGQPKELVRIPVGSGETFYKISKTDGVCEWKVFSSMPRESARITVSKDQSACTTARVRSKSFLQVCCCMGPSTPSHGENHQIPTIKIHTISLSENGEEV
# Assay: Functional antagonism: inhibition of phenylephrine-induced contraction of canine prostate strips
# Assay type: cell-based
# Settings: Schild plot
# Description: Canine prostate strips were used in vitro as previously described (Hieble, J. P., Boyce, Caine, M., Fed Proc., 45: 2609-2614 (1986)), to determine antagonist potencies phenylephrine-induced contractions.
# as §1
# Canine prostate strips were used in vitro as previously described (Hieble, J. P., Boyce, A. J. and Caine, M., Fed. Proc., 45: 2609-2614 (1986)), to determine antagonist potencies against phenylephrine-induced contractions.
row,SMILES,In Vitro Characterization (pA2) Dog Prostate
1,"COc1cccc2c1[C@H]1CN(CCCCn3c(=O)[nH]c4c(sc5cccnc54)c3=O)C[C@H]1CO2 [Example 2, 3-[4-((3aS,9bS)-cis-9-Methoxy-1,2,3,3a,4,9b-hexahydro-[1]-benzopyrano[3,4-c]pyrrol-2-yl)butyl]-pyrido[2',3':4,5]thieno[3,2-d]pyrimidine-2,4(1H,3H)-dione hydrochloride]",7.95
2,"COc1cccc2c1[C@@H]1CN(CCCCn3c(=O)[nH]c4c(sc5cccnc54)c3=O)C[C@H]1CO2 [Example 3, 3-[4-((3aS,9bR)-trans-9-Methoxy-1,2,3,3a,4,9b-hexahydro-[1]-benzopyrano[3,4-c]pyrrol-2-yl)butyl]-pyrido[2',3':4,5]thieno[3,2-d]pyrimidine-2,4(1H,3H)-dione hydrochloride]",9.43

# Now from value to compound:
row,In Vitro Characterization (pA2) Dog Prostate,SMILES
1,7.02,"COc1cccc2c1OC[C@H]1CN(CCCn3c(=O)[nH]c4c(sc5ccccc54)c3=O)C[C@@H]21.Cl (racemic) [Example 68, 3-[3-((±)-cis-6-Methoxy-1,2,3,3a,4,9b-hexahydro-[1]-benzopyrano[3,4-c]pyrrol-2-yl)propyl]-[1]-benzthieno[3,2-d]pyrimidine-2,4(1H,3H)-dione hydrochloride]"
2,9.03,"COc1cccc2c1[C@H]1CN(CCCCn3c(=O)[nH]c4c(sc5nccnc54)c3=O)C[C@@H]1CO2.Cl.Cl (racemic) [Example 74, 3-[4-((±)-trans-9-Methoxy-1,2,3,3a,4,9b-hexahydro-[1]-benzopyrano[3,4-c]pyrrol-2-yl)butyl]-pyrazino[2',3':4,5]thieno[3,2-d]pyrimidine-2,4(1H,3H)-dione dihydrochloride]"
3,7.48,"COc1cccc2c1[C@@H]1CN(CCCn3c(=O)[nH]c4c(sc5ccccc54)c3=O)C[C@@H]1CO2.Cl (racemic) [Example 66, 3-[3-((±)-cis-9-Methoxy-1,2,3,3a,4,9b-hexahydro-[1]-benzopyrano[3,4-c]pyrrol-2-yl)propyl]-[1]-benzthieno[3,2-d]pyrimidine-2,4(1H,3H)-dione hydrochloride]"
4,6.92,COc1ccc2c(c1)OC[C@H]1CN(CCCn3c(=O)[nH]c4c(sc5ccccc54)c3=O)C[C@@H]21.Cl (racemic) [Example 64]
5,7.76,"COc1cccc2c1[C@@H]1CN(CCn3c(=O)[nH]c4c(sc5ccccc54)c3=O)C[C@@H]1CO2.Cl (racemic) [Example 65, 3-[2-((±)-cis-9-Methoxy-1,2,3,3a,4,9b-hexahydro-[1]-benzopyrano[3,4-c]pyrrol-2-yl)ethyl]-[1]-benzthieno[3,2-d]pyrimidine-2,4(1H,3H)-dione hydrochloride]"
6,8.6,"COc1cccc2c1[C@@H]1CCN(CCCCn3c(=O)[nH]c4c(sc5ncccc54)c3=O)C[C@H]1CO2 (relative stereo) [Example 85, 3-[4-((±)-trans-10-Methoxy-1,3,4,4a,5,10b-hexahydro-2H-[1]-benzopyrano[3,4-c]pyrido-3-yl)butyl]-pyrido[3',2':4,5]thieno[3,2-d]pyrimidine-2,4(1H,3H)-dione dihydrochloride]"
7,8.6,"COc1cccc2c1[C@@H]1CCN(CCCCn3c(=O)[nH]c4c(sc5ncc(Cl)nc54)c3=O)C[C@H]1CO2 [Example 97, 3-[4-((4aS,10bR)-trans-10-Methoxy-1,3,4,4a,5,10b-hexahydro-2H-[1]-benzopyrano[3,4-c]pyrido-3-yl)butyl]-8-chloro-pyrazino[2',3':4,5]thieno[3,2-d]pyrimidine-2,4(1H,3H)-dione dihydrochloride]"
